ChEMBL document CHEMBL1201862, “PubChem BioAssay data set” (2004)
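Cells were grown in 96-well plates and exposed to each compound for 48 hours at five concentrations; endpoints were interpolated linearly between bracketing concentrations, or set to the highest concentration if not reached. GI50 marks 50% less growth.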 The source made the active and inactive calls. Rule as the data show it: active = GI50 up to about 1.1 µM and inactive = higher.

Key:
Test in all cases: growth of human tumour cells (NCI), 48 h
TK-10 = test system: TK-10
HL-60 = test system: HL-60
MDA-MB-435 = test system: MDA-MB-435
COLO 205 = test system: COLO 205
CCRF-CEM = test system: CCRF-CEM
A549 = test system: A549
NCI-H226 = test system: NCI-H226
HT-29 = test system: HT-29
OVCAR-8 = test system: OVCAR-8
UO-31 = test system: UO-31
T47D = test system: T47D
UACC-62 = test system: UACC-62
KM12 = test system: KM12
RPMI-8226 = test system: RPMI-8226
SF-539 = test system: SF-539
EKVX = test system: EKVX
NCI-H460 = test system: NCI-H460
NCI/ADR-RES = test system: NCI/ADR-RES
SR = test system: SR
OVCAR-4 = test system: OVCAR-4

| SMILES | GI50 (TK-10) | GI50 (HL-60) | GI50 (MDA-MB-435) | GI50 (COLO 205) | GI50 (CCRF-CEM) | GI50 (A549) | GI50 (NCI-H226) | GI50 (HT-29) | GI50 (OVCAR-8) | GI50 (UO-31) | GI50 (T47D) | GI50 (UACC-62) | GI50 (KM12) | GI50 (RPMI-8226) | GI50 (SF-539) | GI50 (EKVX) | GI50 (NCI-H460) | GI50 (NCI/ADR-RES) | GI50 (SR) | GI50 (OVCAR-4) |
| --- | --- | --- | --- | --- | --- | --- | --- | --- | --- | --- | --- | --- | --- | --- | --- | --- | --- | --- | --- | --- |
| CC(=O)Oc1cccc2c(/C=N/NC(N)=S)ncc(C)c12 | 7.64 µM (inactive) | 0.931 µM (active) | 4.29 µM (inactive) | 3.4 µM (inactive) | 0.422 µM (active) | 3.81 µM (inactive) | 2.96 µM (inactive) | 4.48 µM (inactive) | 0.463 µM (active) | 1.05 µM (active) | 1.47 µM (inactive) | 1.17 µM (inactive) | 0.895 µM (active) | 1.56 µM (inactive) | 0.207 µM (active) | 4.72 µM (inactive) | 0.966 µM (active) | 1.01 µM (active) | 0.331 µM (active) | 7.41 µM (inactive) |
| CCOC(=O)/C=C(/C(=O)OCC)n1ccc(=O)[nH]c1=O | 3.73 µM (inactive) | 1.78 µM (inactive) | 10.8 µM (inactive) | 1.65 µM (inactive) | 1.14 µM (inactive) | 18 µM (inactive) | 6 µM (inactive) | 10.9 µM (inactive) | 13 µM (inactive) | 14 µM (inactive) | 3.4 µM (inactive) | 11.8 µM (inactive) | 17.6 µM (inactive) | 2.67 µM (inactive) | 18.9 µM (inactive) | 4.86 µM (inactive) | 14.6 µM (inactive) | 15.5 µM (inactive) | 4.36 µM (inactive) | 8.61 µM (inactive) |
| O=C(/C=c1\oc(=O)/c(=C/C(=O)c2ccc(Cl)cc2)oc1=O)c1ccc(Cl)cc1 | > 100 µM (inactive) | > 100 µM (inactive) | > 100 µM (inactive) | > 100 µM (inactive) | 39.4 µM (inactive) | > 100 µM (inactive) | > 100 µM (inactive) | > 100 µM (inactive) | > 100 µM (inactive) | > 100 µM (inactive) | 53.7 µM (inactive) | > 100 µM (inactive) | > 100 µM (inactive) | > 100 µM (inactive) | > 100 µM (inactive) | > 100 µM (inactive) | > 100 µM (inactive) | > 100 µM (inactive) | 52.6 µM (inactive) | 39.6 µM (inactive) |
| O=C(CSCC(=O)N/N=C\c1cccc([N+](=O)[O-])c1)N/N=C\c1cccc([N+](=O)[O-])c1 | 17.4 µM (inactive) | > 100 µM (inactive) | > 100 µM (inactive) | > 100 µM (inactive) | > 100 µM (inactive) | 66.5 µM (inactive) | > 100 µM (inactive) | > 100 µM (inactive) | 31.3 µM (inactive) | 34.4 µM (inactive) | 34.1 µM (inactive) | 70.8 µM (inactive) | > 100 µM (inactive) | > 100 µM (inactive) | 24 µM (inactive) | 53.6 µM (inactive) | 69.2 µM (inactive) | 19.2 µM (inactive) | 69 µM (inactive) | > 100 µM (inactive) |
| CC(C)=CCc1ccc2[nH]c3c(c2c1)C(=O)C(=O)C(C)=C3C(O)C(C)O (stereo not given) | 2.52 µM (inactive) | 0.769 µM (active) | 2.85 µM (inactive) | 2.16 µM (inactive) | 1.55 µM (inactive) | 21.8 µM (inactive) | 15.1 µM (inactive) | 9.33 µM (inactive) | 2.13 µM (inactive) | 1.55 µM (inactive) | 2.29 µM (inactive) | 5.52 µM (inactive) | 16.5 µM (inactive) | 1.82 µM (inactive) | 5.98 µM (inactive) | 16.1 µM (inactive) | 14.1 µM (inactive) | 15.1 µM (inactive) | 2.45 µM (inactive) | 3.72 µM (inactive) |
| C=C(C)C(=O)O[C@H]1[C@H]2[C@H](OC(=O)[C@H]2C)[C@H](O)[C@@H](C)[C@@H]2C=CC(=O)[C@]21C | 2.82 µM (inactive) | 0.692 µM (active) | 2.56 µM (inactive) | 3.27 µM (inactive) | 2.07 µM (inactive) | 4.16 µM (inactive) | 8.57 µM (inactive) | 3.33 µM (inactive) | 1.94 µM (inactive) | 3.94 µM (inactive) | 4.78 µM (inactive) | 1.77 µM (inactive) | 2.51 µM (inactive) | 2.85 µM (inactive) | 3.67 µM (inactive) | 2.86 µM (inactive) | 1.82 µM (inactive) | 3.22 µM (inactive) | 1.73 µM (inactive) | 5.64 µM (inactive) |
